In patent US9134313B2, “Method of detecting colorectal cancer of stages 0 to I” (Tokyo Metropolitan Organization For Medical Research, priority 2003, dated 2015):

System: anti-DiAcSpm antibody Code No. NZW 2
Assay: Cross-reactivity of affinity-purified anti-DiAcSpm antibody with urinary DiAcSpm analogues
Format: binding, rabbit
Conditions: for Cross-reactivity (1)x(2) %: cross-reactivity multiplied by abundance in urine: interference on urinary DiAcSpm determination; for KiDiAcSpm/Ki"s"(%) (1): cross-reactivity of antibody NZW 2 with each polyamine, DiAcSpm = 100
Excerpt: The antibody of the invention has one or both of the following properties: (i) its cross-reactivity with N^1-AcSpd (which is present in urine as a DiAcSpm analogue in an amount about 30-times greater than DiAcSpm) is 0.1% or less; (ii) total interference on the measurement results caused by its cross-reaction with DiAcSpm analogues present in urine is 5% or less. The numerical value mentioned in (i) above is a value showing the nature of the antibody. The numerical value mentioned in (ii) above is a value obtained by multiplying cross-reactivity itself by the abundance of these analogues in urine; this value can be an indicator showing how much interference these analogues would give actually on the quantitative determination of DiAcSpm.
Step-wise affinity purification was carried out to examine whether specific antibodies with sufficient purity applicable to a urinary DiAcSpm measuring system can be obtained. The affinity purification was carried out step-wise based on the method of Kawakita et al. (Hiramatsu, K. et al., J. Biochem., 124, 231-236 (1998)), using DiAcSpm column and DiSpd column prepared by derivatizing carboxy-Toyopearl with AcSpm and N8-AcSpd (FIG. 3).
Further, the total interference on the measurement results caused by the cross-reaction of this antibody with DiAcSpm analogues present in urine was 2.9%; thus, cross-reactivity of 5% or less was achieved (FIG. 4, Table 3).

Row | SMILES | Cross-reactivity (1)x(2) % [%] | KiDiAcSpm/Ki"s"(%) (1) | KiDiAcSpm/Ki"s"(%) (1) (listed as N^1-AcSpd)
1 | CC(=O)NCCCNCCCCNCCCNC(C)=O [DiAcSpm, N^1,N^12-diacetylspermine] | 100 | 100 | 
2 | CC(=O)NCCCCNCCCN [N8-AcSpd, N^8-Ac-Spermidine] | 0.024 | 0.001 | 
3 | CC(=O)NCCCNCCCCN [N1-AcSpd, N^1-Ac-Spermidine] | 2.65 | 0.100 | ≤ 0.1
4 | CC(=O)NCCCCNCCCNC(C)=O [DiAcSpd, N^1,N^8-diacetylspermidine] | 0.094 | 0.032 | 
5 | CC(=O)NCCCNCCCCNCCCN [AcSpm, monoacetylspermine] | 0.131 | 0.418 | 
